From patent publication US10045981B2, “Selective kinase inhibitors” (JAKPHARM, LLC, priority 2015, dated 2018)
Like-named read-outs stand apart in the source and are kept apart here. Marks after values point to notes of the source that are not given here.

Experiments:
[1] = target: T1, JAK3 (Homo sapiens, UniProt P52333); assay: JAK3 biochemical IC50; conditions: for JAK3 selectivity vs. STAT5: STAT5 IC50 relative to JAK3 IC50; for selectivity for JAK3 compared to JAK1, JAK2, and TYK2 (in words): two independent analyses
T1 sequence (P52333 1-1124): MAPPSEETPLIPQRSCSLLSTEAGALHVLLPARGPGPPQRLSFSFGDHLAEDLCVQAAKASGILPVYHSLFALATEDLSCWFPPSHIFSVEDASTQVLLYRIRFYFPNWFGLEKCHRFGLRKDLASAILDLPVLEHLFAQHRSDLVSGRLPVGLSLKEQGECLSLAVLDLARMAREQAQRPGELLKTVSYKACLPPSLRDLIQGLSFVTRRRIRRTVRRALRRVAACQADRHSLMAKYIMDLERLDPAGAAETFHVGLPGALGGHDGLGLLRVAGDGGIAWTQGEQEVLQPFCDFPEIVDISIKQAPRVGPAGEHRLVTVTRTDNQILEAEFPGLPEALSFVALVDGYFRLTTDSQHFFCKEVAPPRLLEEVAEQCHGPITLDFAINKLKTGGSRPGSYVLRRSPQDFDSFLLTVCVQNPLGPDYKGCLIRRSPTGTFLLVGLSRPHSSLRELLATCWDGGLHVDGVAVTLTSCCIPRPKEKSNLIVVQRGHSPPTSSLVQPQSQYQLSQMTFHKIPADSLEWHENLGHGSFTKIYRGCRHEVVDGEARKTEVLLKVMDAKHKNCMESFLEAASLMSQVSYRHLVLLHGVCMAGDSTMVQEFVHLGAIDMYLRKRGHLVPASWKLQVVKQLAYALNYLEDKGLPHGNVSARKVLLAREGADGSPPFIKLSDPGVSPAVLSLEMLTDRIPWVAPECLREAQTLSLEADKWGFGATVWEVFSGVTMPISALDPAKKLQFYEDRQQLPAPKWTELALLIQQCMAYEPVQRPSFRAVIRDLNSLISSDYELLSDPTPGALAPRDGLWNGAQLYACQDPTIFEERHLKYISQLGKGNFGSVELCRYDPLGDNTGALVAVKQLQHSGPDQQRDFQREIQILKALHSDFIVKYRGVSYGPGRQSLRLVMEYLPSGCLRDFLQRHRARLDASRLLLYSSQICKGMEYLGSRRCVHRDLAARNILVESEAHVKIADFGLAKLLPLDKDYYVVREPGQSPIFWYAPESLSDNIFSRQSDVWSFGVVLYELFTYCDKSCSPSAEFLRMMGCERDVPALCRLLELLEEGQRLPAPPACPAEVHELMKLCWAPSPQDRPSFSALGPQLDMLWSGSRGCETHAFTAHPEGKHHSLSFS

[2] = test system: STAT5; assay: STAT5 inhibition IC50; type: cell-based
[3] = target: JAK1 (Homo sapiens, UniProt P23458); assay: JAK1 IC50; type: biochemical
[4] = target: CK1g2 (Homo sapiens, UniProt P78368); assay: Exemplary Kinase Panel Analysis; type: biochemical; conditions: 10 concentrations, 3-fold serial dilutions starting at 5 μM, duplicate
[5] = target: EGFR (d746-750/T790M) (Homo sapiens, UniProt P00533, DEL746-750/T790M); assay: Exemplary Kinase Panel Analysis; type: biochemical; conditions: 10 concentrations, 3-fold serial dilutions starting at 5 μM, duplicate
[6] = target: EGFR (d752-759) (Homo sapiens, UniProt P00533, DEL752-759); assay: Exemplary Kinase Panel Analysis; type: biochemical; conditions: 10 concentrations, 3-fold serial dilutions starting at 5 μM, duplicate
[7] = target: EGFR (L858R, T790M) (Homo sapiens, UniProt P00533, L858R/T790M); assay: Exemplary Kinase Panel Analysis; type: biochemical; conditions: 10 concentrations, 3-fold serial dilutions starting at 5 μM, duplicate
[8] = target: T1, JAK3; assay: Exemplary Kinase Panel Analysis; type: biochemical; conditions: 10 concentrations, 3-fold serial dilutions starting at 5 μM, duplicate
[9] = target: T2, TXK (Homo sapiens, UniProt P42681); assay: Exemplary Kinase Panel Analysis; type: biochemical; conditions: 10 concentrations, 3-fold serial dilutions starting at 5 μM, duplicate
T2 sequence (P42681 1-527): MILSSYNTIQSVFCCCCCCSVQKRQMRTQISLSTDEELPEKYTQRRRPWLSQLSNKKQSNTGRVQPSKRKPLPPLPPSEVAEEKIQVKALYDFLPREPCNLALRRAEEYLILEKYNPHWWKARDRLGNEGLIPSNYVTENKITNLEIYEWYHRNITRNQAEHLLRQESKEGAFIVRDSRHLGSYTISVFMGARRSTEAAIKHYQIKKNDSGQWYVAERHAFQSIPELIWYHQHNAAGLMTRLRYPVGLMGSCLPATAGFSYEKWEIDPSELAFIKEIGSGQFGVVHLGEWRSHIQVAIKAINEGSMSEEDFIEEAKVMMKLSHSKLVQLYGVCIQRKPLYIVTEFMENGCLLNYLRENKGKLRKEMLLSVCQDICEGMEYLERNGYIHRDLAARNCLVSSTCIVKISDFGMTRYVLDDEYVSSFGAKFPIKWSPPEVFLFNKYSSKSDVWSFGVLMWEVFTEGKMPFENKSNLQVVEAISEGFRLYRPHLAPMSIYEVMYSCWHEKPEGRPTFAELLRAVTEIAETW

[10] = Brain penetration classification
[11] = Rat Liver Microsomes stability; type: in vitro ADME; conditions: read-out: Rat Liver Microsomes t½
[12] = target: CYP2D6 (Homo sapiens, UniProt P10635); assay: CYP2D6 inhibition LCMS; type: in vitro ADME
[13] = target: T3, CYP3A4 (Homo sapiens, UniProt P08684); assay: CYP3A4 inhibition midazolam LCMS; type: in vitro ADME
[14] = target: T3, CYP3A4; assay: CYP3A4 inhibition testosterone LCMS; type: in vitro ADME; conditions: read-out: CYP3A4 K50 [uM] testosterone LCMS
[15] = Mouse Plasma protein binding; type: in vitro ADME
[16] = target: T4, hERG (Homo sapiens, UniProt Q12809); assay: hERG K+ channel current in HEK293 cells; type: cell-based
T4 construct: expressed in transfected cells; host or cells: HEK293

[17] = Original analysis, read-out: JAK3 IC50 (uM) Original
[18] = Table 3, first session (before /), read-out: JAK3 biochemical IC50
[19] = Table 3, second session (after /), read-out: JAK3 biochemical IC50
[20] = re-test, read-out: JAK3 IC50 (uM) re-test
[21] = Original analysis, read-out: STAT5 IC50 (uM) Original
[22] = Table 3, first session (before /), read-out: STATS inhibition IC50
[23] = Table 3, second session (after /), read-out: STATS inhibition IC50
[24] = re-test, read-out: STAT5 IC50 (uM) re-test
[25] = Original analysis, read-out: JAK1 IC50 (uM) Original
[26] = re-test, read-out: JAK1 IC50 (uM) re-test

JAK1, sequence (P23458 whole entry, species assumed): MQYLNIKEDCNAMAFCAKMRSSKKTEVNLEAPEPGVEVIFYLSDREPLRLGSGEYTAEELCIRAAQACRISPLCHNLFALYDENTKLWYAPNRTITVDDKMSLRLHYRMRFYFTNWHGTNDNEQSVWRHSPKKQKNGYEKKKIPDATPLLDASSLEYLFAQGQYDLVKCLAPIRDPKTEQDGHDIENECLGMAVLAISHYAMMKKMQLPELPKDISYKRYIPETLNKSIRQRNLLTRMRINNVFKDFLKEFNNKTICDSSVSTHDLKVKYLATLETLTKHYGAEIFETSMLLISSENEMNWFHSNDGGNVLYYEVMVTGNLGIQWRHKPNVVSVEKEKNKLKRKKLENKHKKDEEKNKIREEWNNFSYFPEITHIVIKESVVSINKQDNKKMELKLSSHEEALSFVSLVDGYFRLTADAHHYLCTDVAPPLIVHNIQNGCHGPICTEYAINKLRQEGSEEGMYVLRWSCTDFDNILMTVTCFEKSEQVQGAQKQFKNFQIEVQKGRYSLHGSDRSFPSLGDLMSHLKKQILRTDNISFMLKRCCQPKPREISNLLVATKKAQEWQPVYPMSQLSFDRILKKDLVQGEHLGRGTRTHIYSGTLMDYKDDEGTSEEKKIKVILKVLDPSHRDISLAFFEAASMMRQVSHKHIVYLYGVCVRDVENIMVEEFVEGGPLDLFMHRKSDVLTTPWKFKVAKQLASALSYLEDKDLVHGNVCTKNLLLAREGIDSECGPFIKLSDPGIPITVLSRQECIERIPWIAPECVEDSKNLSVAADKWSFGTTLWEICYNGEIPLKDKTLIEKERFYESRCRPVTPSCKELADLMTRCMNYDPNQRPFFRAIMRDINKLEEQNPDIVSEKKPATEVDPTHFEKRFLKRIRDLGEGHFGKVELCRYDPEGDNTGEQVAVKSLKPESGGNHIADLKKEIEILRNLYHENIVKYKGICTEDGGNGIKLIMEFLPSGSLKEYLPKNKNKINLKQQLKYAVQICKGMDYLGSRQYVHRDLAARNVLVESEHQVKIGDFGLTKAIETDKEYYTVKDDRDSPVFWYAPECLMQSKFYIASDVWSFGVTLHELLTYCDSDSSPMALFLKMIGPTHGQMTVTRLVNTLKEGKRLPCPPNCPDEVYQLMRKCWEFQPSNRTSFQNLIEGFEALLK
EGFR (L858R, T790M), sequence (P00533 25-1210 T790M/L858R): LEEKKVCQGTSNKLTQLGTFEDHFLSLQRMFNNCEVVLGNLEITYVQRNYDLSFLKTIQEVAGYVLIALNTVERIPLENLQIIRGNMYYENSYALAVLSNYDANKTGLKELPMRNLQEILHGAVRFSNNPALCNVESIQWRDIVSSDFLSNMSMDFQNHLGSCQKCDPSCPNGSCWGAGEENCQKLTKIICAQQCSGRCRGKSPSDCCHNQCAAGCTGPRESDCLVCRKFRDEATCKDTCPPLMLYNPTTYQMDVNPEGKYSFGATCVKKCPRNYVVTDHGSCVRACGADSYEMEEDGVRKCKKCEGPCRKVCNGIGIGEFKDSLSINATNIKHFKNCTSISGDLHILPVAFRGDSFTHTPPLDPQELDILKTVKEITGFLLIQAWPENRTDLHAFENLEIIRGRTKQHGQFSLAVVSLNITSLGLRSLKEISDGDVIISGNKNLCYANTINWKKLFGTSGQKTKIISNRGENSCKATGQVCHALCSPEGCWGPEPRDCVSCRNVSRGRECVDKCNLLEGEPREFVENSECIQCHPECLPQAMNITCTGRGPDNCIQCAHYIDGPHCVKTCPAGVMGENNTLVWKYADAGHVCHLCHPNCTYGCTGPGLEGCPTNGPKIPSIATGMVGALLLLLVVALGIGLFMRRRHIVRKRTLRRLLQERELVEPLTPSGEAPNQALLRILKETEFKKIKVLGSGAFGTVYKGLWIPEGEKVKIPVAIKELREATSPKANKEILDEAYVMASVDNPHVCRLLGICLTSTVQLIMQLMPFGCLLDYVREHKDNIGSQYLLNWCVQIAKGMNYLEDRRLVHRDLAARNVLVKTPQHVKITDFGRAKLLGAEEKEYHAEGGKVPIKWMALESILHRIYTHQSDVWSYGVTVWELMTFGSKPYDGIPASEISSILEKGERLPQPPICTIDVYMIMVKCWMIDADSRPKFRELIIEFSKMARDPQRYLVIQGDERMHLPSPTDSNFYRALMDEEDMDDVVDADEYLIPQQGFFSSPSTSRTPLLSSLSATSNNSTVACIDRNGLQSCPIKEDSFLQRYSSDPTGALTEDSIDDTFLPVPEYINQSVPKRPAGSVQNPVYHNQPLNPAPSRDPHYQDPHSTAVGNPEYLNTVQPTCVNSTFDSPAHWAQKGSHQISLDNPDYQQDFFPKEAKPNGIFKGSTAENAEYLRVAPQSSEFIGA
CYP2D6, sequence (P10635 whole entry): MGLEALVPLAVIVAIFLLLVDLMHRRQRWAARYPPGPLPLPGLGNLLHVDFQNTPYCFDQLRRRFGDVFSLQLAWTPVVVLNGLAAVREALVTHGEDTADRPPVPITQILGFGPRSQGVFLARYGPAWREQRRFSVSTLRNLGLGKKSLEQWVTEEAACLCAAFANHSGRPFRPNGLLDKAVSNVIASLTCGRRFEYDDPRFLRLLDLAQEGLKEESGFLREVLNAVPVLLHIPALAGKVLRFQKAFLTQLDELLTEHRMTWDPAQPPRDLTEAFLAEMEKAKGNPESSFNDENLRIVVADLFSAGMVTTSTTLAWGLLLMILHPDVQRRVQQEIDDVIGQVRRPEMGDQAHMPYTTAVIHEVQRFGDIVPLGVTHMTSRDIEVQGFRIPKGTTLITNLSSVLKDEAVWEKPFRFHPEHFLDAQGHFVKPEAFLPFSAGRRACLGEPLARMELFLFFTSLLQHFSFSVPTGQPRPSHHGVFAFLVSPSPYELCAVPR
EGFR (d752-759), sequence (P00533 with tags, fused parts or gaps DEL752-759 limits assumed): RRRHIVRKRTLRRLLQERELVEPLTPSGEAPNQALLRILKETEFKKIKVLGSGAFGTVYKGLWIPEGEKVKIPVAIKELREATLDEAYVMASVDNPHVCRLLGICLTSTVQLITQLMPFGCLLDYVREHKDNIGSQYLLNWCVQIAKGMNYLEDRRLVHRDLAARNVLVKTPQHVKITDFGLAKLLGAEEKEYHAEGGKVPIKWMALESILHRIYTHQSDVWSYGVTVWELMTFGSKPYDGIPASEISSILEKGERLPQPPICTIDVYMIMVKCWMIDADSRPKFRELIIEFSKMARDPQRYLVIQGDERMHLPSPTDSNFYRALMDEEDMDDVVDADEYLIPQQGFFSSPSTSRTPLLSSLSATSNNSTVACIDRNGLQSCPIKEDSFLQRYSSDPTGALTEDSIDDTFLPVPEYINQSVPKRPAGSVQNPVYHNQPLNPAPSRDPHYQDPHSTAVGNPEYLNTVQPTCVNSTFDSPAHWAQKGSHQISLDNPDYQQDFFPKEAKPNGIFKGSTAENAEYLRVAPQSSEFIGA
EGFR (d746-750/T790M), sequence (P00533 with tags, fused parts or gaps DEL746-750/T790M limits assumed): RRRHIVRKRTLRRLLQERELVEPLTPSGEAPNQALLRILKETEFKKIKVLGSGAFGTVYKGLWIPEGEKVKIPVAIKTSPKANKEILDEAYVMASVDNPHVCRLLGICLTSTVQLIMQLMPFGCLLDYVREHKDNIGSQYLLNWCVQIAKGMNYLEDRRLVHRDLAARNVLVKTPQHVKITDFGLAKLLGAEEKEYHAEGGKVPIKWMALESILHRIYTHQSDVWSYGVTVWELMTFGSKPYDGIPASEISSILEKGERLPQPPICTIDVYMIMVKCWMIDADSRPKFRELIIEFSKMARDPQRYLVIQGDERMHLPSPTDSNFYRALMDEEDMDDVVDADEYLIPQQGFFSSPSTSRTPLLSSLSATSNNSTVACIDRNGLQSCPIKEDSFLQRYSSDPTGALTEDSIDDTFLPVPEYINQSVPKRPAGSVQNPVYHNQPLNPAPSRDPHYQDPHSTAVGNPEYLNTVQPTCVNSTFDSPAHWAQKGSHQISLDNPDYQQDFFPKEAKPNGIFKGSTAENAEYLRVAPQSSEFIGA
T3 sequence (P08684 whole entry): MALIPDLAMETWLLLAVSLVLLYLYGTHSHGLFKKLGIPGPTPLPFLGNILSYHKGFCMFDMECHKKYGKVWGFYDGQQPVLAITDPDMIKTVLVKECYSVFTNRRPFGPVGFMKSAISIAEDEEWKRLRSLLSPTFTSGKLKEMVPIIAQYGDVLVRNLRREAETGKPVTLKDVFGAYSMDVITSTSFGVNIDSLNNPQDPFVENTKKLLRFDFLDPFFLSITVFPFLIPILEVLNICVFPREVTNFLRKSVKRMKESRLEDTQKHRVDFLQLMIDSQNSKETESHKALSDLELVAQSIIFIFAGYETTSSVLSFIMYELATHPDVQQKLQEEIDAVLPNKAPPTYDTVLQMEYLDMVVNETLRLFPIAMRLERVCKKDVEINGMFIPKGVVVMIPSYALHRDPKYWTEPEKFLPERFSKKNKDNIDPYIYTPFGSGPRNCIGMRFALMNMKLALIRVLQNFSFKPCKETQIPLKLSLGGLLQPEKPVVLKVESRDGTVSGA
CK1g2, sequence (P78368 whole entry, species assumed): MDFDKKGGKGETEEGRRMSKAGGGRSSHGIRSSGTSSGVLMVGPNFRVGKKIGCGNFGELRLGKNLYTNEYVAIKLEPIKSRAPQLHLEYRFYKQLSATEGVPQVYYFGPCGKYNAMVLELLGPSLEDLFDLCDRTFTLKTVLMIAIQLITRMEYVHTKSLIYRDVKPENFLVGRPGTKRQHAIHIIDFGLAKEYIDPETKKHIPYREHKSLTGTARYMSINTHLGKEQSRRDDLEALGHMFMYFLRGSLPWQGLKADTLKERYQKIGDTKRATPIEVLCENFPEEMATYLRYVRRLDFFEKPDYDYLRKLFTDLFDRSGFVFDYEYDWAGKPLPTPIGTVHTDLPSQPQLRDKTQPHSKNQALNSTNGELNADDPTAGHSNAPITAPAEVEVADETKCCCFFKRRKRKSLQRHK

IC50 [1, 17] | JAK3 selectivity vs. STAT5 [1] | IC50 [1, 18] | IC50 [1, 19] | IC50 [1, 20] | selectivity for JAK3 compared to JAK1, JAK2, and TYK2 (in words) [1] | IC50 [2, 21] | IC50 [2, 22] | IC50 [2, 23] | IC50 [2, 24] | IC50 [3, 25] | IC50 [3, 26] | IC50 [4] | IC50 [5] | IC50 [6] | IC50 [7] | IC50 [8] | IC50 [9] | Brain penetration classification [10] | half-life ([11]; first session (before /)) | SMILES | further results
0.013 µM | (178X)* | 0.013 µM | 0.01 µM | 0.01 µM | highly selective for JAK3 | 1.2 µM | 1.2 µM | 2.9 µM | 2.9 µM | ≥ 100 µM | ≥ 100 µM | 0.248 µM | 0.0879 µM | 0.194 µM | 0.231 µM | 0.00157 µM | 0.0316 µM | Low | 50 min | C=CC(=O)Nc1cc(CN2CCN(C)C(=O)C2)cc(-c2cnc3ccccc3n2)c1 [Compound 1a] | half-life ([11]; second session (after /)): 36 min; IC50 ([12]; first session (before /)): > 100 µM; IC50 ([12]; second session (after /)): > 100 µM; IC50 ([13]; first session (before /)): > 100 µM; IC50 ([13]; second session (after /)): > 100 µM; IC50 ([14]; first session (before /)): 81.5 µM; IC50 ([14]; second session (after /)): > 100 µM; fraction unbound [15]: 0.034; IC50 [16]: > 10 µM
0.018 µM | (392X)* | 0.018 µM | 0.018 µM | 0.018 µM | highly selective for JAK3 | 5.5 µM | 5.5 µM | 8.6 µM | 8.6 µM | ≥ 100 µM | ≥ 100 µM | 0.322 µM | 0.56 µM | 1.56 µM | 1.32 µM | 0.000972 µM | 0.0161 µM | Low | 63 min | C=CC(=O)Nc1cc(CN2CCNC(=O)C2)cc(-c2cnc3ccccc3n2)c1 [Compound 1b, N-[3-[(3-oxopiperazin-1-yl)methyl]-5-quinoxalin-2-yl-phenyl] prop-2-enamide] | half-life ([11]; second session (after /)): 77 min; IC50 ([12]; first session (before /)): > 100 µM; IC50 ([12]; second session (after /)): > 100 µM; IC50 ([13]; first session (before /)): > 100 µM; IC50 ([13]; second session (after /)): > 100 µM; IC50 ([14]; first session (before /)): > 100 µM; IC50 ([14]; second session (after /)): > 100 µM; fraction unbound [15]: 0.059; IC50 [16]: > 10 µM
0.013 µM | (370X)* | 0.015 µM | 0.007 µM | 0.007 µM | highly selective for JAK3 | 0.8 µM | 0.8 µM | 2.9 µM | 2.9 µM | ≥ 100 µM | ≥ 100 µM | 0.00986 µM | 0.299 µM | 1.03 µM | 0.653 µM | 0.00119 µM | 0.0149 µM | Moderate | 2 min | C=CC(=O)Nc1cc(CC(=O)OC)cc(-c2cnc3ccccc3n2)c1 [Compound 2] | half-life ([11]; second session (after /)): 2.2 min; IC50 ([12]; first session (before /)): > 100 µM; IC50 ([12]; second session (after /)): > 100 µM; IC50 ([13]; first session (before /)): > 100 µM; IC50 ([13]; second session (after /)): > 100 µM; IC50 ([14]; first session (before /)): > 100 µM; IC50 ([14]; second session (after /)): > 100 µM; IC50 [16]: > 10 µM
0.016 µM | (382X)* | 0.016 µM | 0.023 µM | 0.023 µM | highly selective for JAK3 | 7.5 µM | 7.5 µM | 7.4 µM | 7.4 µM | ≥ 100 µM | ≥ 100 µM | 0.0333 µM | 0.996 µM | 3.18 µM | 1.12 µM | 0.0249 µM | 0.144 µM | Low | 38 min | C=CC(=O)Nc1cc(NS(C)(=O)=O)cc(-c2cnc3ccccc3n2)c1 [Compound 3] | half-life ([11]; second session (after /)): 60 min; IC50 ([12]; first session (before /)): > 100 µM; IC50 ([12]; second session (after /)): > 100 µM; IC50 ([13]; first session (before /)): > 100 µM; IC50 ([13]; second session (after /)): > 100 µM; IC50 ([14]; first session (before /)): 89.7 µM; IC50 ([14]; second session (after /)): 51 µM; fraction unbound [15]: 0.147; IC50 [16]: > 1 µM
